# Results published in US10919841B2, “Monoamine reuptake inhibitors” (Research Triangle Institute, priority 2009, dated 2021).
# Where two headings read alike, the source gives them in different places. Marks after values point to notes of the source that are not given here.
# Legend:
# (h)DAT [1] = biological target: T1, (h)DAT (Homo sapiens, UniProt Q01959); assay: block of [3H]dopamine reuptake in HEK-(h)DAT cells; format: cell-based
# T1 construct: expressed in transfected cells
# mice [2] = assay: locomotor activity, 8-h time course protocol; format: in vivo; conditions: for ED50 / Emax: Mus musculus; for ED50: read-out: Locomotor Activity 8-Hour ED50; for Emax: read-out: Locomotor Activity 8-Hour % Peak Cocaine, percent of cocaine's maximal effect, 30 min period of maximum stimulation; for Locomotor Activity 8-Hour Time, min Period, length: duration of locomotor activity; for Locomotor Activity 8-Hour Time, min Period, max: time period of maximum effect; for locomotor stimulant activity across the 1-h and 8-h protocols, in words: 1-h and 8-h tests compared
# rats [3] = assay: cocaine discrimination (2-lever operant), i.p. administration; conditions: for responders at 5 mg/kg / responders at 10 mg/kg / responders at 25 mg/kg / ED50 / responders at 50 mg/kg / responders at 100 mg/kg: Rattus norvegicus, ip; for responders at 5 mg/kg / responders at 10 mg/kg / responders at 25 mg/kg / responders at 50 mg/kg / responders at 100 mg/kg: read-out: % cocaine lever responding
# rats [4] = assay: cocaine discrimination time-course study, oral administration; conditions: for ED50: Rattus norvegicus, po, 0.75 h; for generalization to cocaine: p.o., 50 mg/kg
# (h)DAT [5] = biological target: T1, (h)DAT; assay: competition binding with [125I]RTI-55 at (h)DAT stably expressed in HEK293 cells; conditions: mean ± standard error of three independent experiments
# mice [6] = assay: locomotor activity, 1-h observation protocol; format: in vivo; conditions: for Emax / ED50: Mus musculus; for Emax: 0.5 h, read-out: Locomotor Activity 1-Hour % Peak Cocaine; for ED50 / Locomotor Activity 1-Hour ED50: dose to produce 50% of the compound's maximal effect, 1-h
# (h)NET [7] = biological target: T2, (h)NET (Homo sapiens, UniProt P23975); assay: block of [3H]norepinephrine reuptake in HEK-(h)NET cells; conditions: read-out: Uptake, IC50 [3H]NE; mean ± standard error of three independent experiments
# T2 sequence (P23975 whole entry): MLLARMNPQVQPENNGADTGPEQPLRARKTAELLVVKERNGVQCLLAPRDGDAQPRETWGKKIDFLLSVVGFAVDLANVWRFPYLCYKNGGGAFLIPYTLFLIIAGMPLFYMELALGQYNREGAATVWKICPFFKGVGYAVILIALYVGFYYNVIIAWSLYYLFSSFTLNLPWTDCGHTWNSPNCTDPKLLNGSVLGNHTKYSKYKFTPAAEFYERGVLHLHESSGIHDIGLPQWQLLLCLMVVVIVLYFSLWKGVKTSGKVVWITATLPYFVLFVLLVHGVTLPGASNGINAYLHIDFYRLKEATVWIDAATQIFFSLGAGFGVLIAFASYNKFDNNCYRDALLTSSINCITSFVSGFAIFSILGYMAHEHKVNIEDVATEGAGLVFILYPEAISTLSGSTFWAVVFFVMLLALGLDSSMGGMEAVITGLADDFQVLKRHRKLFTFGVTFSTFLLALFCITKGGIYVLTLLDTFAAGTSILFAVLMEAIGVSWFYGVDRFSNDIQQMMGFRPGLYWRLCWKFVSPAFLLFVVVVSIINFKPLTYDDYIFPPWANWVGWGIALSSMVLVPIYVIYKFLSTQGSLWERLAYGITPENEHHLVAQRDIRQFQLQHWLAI
# (h)NET [8] = biological target: T2, (h)NET; assay: competition binding with [125I]RTI-55 at (h)NET stably expressed in HEK293 cells; conditions: read-out: Binding, Ki NET; mean ± standard error of three independent experiments
# [9] = mean ± standard error of three independent experiments, read-out: Uptake, IC50 [3H]DA
# [10] = dose to produce 50% of the compound's maximal effect, 8-h
# [11] = read-out: Full Generalization ED50
# [12] = [3H]DA, read-out: IC50 for DA uptake inhibition
# T1 sequence (Q01959 whole entry): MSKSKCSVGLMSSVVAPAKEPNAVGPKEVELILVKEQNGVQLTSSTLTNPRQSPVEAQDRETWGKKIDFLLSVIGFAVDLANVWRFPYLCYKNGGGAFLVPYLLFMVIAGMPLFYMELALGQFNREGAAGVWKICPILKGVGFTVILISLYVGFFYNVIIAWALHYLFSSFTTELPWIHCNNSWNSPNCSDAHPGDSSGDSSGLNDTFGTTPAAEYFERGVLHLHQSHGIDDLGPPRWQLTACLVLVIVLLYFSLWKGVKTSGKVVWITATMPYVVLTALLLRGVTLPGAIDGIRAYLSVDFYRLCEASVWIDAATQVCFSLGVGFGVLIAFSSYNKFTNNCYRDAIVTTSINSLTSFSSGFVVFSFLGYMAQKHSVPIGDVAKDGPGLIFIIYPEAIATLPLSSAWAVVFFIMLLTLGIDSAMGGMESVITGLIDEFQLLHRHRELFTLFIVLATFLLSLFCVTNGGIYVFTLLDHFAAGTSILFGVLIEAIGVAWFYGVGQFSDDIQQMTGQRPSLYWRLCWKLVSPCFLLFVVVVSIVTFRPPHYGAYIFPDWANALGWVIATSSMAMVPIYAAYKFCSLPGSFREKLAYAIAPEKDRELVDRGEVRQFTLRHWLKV
Compound,Emax (mice [2]) [%],"Locomotor Activity 8-Hour Time, min Period, length (mice [2]) [min]","Locomotor Activity 8-Hour Time, min Period, max (mice [2]) [min]",responders at 5 mg/kg (rats [3]) [%],responders at 10 mg/kg (rats [3]) [%],responders at 25 mg/kg (rats [3]) [%],ED50 (rats [4]) [mg/kg],Ki ((h)DAT [5]) [µM],IC50 ((h)DAT [1]; [9]) [µM],Emax (mice [6]) [%],ED50 (mice [6]) [mg/kg],"locomotor stimulant activity across the 1-h and 8-h protocols, in words (mice [2])",ED50 (mice [2]; [10]) [mg/kg],IC50 ((h)NET [7]) [µM],ED50 (rats [3]; [11]) [mg/kg],responders at 50 mg/kg (rats [3]) [%],further results
"CC(NC(C)(C)C)C(=O)c1cccc(Cl)c1 (racemic) [Compound 2a, (±)-2-tert-butylamino-3′-chloropropiophenone, reference compound]",> 84,130 to 270,0 to 30,0,67,66,23.2,,,,,,,,,,"times less potent inhibitor of DA uptake than cocaine ((h)DAT [1]; relative to cocaine): 3.5 times; ED50 (mice [2]; 8 h): 6.5 mg/kg; generalization to the cocaine cue, in words (rats [3]; i.p.): substituted only partially; cocaine-appropriate responding (rats [3]; i.p., 10 mg/kg): 67%; response rate, in words (rats [3]; i.p., dose range given in the value): increased relative to vehicle control following 5-25 mg/kg; ED50 (rats [4]; read-out: ED50 for drug-appropriate responding): 23.2 mg/kg; generalization to cocaine (rats [4]; 45 min): full generalization; generalization to cocaine (rats [4]; 90 min): partial generalization"
"CC(NC(C)(C)C)C(=O)c1ccccc1 (centres unmarked) [Compound 2b, 2-(N-tert-Butylamino)propiophenone]",98,,0 to 30,3,83,83,25.6,5.73,2.31,120,8.1,strong stimulants in both studies,10.5,8.7,5.65,,Ki ((h)NET [8]): 5.7 µM
"CC(NC(C)(C)C)C(=O)c1cccc(F)c1 (centres unmarked) [Compound 2c, 2-(tert-Butylamino)-3′-fluoropropiophenone]",90,150,0 to 30,1,0,50,27.1,4.51,1.46,84,16.1,strong stimulants in both studies,16.6,,10.8,10,
"CC(C(=O)c1cccc(Cl)c1)N(C)C(C)(C)C (centres unmarked) [Compound 2cc, 2-(N-Methyl-N-tert-butylamino)-3′-chloropropiophenone]",67,200 to 340,80 to 110,0,49,50,,6.4,2.06,78,14.9,weak stimulants in both tests,11.2,,,,
"CC(NC(C)(C)C)C(=O)c1cccc(Br)c1 (centres unmarked) [Compound 2d, 2-(N-tert-Butylamino)-3′-bromopropiophenone]",57,120,0 to 30,1,27,83,52.4,4.2,,72,10.6,weak stimulants in both tests,12.9,6.5,11.4,,IC50 ((h)DAT [1]; [12]): 0.95 µM
"CC(C(=O)c1cccc(Cl)c1)N(C)C (centres unmarked) [Compound 2dd, 2-(N,N-Dimethylamino)-3′-chloropropiophenone]",52,180 to 190,90 to 120,0,83,83,5.36,4.13,,100,11,activity similar to cocaine in the 1-h protocol but weakened significantly in the 8-h time-course study,13.9,1.26,4.84,10,IC50 ((h)DAT [1]; [12]): 1.53 µM; ED50 (rats [3]; read-out: ED50 for cocaine generalization): 4.84 mg/kg; Ki ((h)NET [8]): 3.09 µM
"Cc1cccc(C(=O)C(C)NC(C)(C)C)c1 (centres unmarked) [Compound 2e, 2-(N-tert-Butylamino)-3′-methylpropiophenone]",,,,,,,,,,76,31,,,,,,
"CCN(CC)C(C)C(=O)c1cccc(Cl)c1 (centres unmarked) [Compound 2ee, 2-(N,N-Diethylamino)-3′-chloropropiophenone]",90,130 to 240,20 to 50,1,66,82,,2.21,1.74,55,16.6,moderate activity in the 1-h test with increased activity in the time-course study,20,4.6,5.88,,Ki ((h)NET [8]): 4.48 µM
"CC(NC(C)(C)C)C(=O)c1ccc(Cl)cc1 (centres unmarked) [Compound 2f, 2-(N-tert-Butylamino)-4′-chloropropiophenone]",,,180 to 210,0,33,17,,2.19,2.32,,,,,,,0,Locomotor Activity 1-Hour ED50 (mice [6]): NE^f; responders at 100 mg/kg (rats [3]): 34%
"Cc1ccc(C(=O)C(C)NC(C)(C)C)cc1 (centres unmarked) [Compound 2h, 2-(N-tert-Butylamino)-4′-methylpropiophenone]",52,60 to 140,30 to 60,0,0,17,,,,65,8.77,weak stimulants in both tests,,,36.7,67,ED50 (mice [2]; 8 h): 4.4 mg/kg; responders at 100 mg/kg (rats [3]): 10%
"CC(NC(C)(C)C)C(=O)c1ccc(F)c(F)c1 (centres unmarked) [Compound 2i, 2-tert-Butylamino-3′,4′-difluoropropiophenone]",,,,,2,17,,,,58,54.6,,,,,47,
"CC(NC(C)(C)C)C(=O)c1cc(F)cc(F)c1 (centres unmarked) [Compound 2m, 2-(tert-Butylamino)-3′,5′-difluoropropiophenone]",95,280,0 to 30,,17,50,43.6,5.66,5.6,93,39.7,strong stimulants in both studies,33.7,,17.9,83,
"CC(NC(C)(C)C)C(=O)c1cc(Cl)cc(Cl)c1 (centres unmarked) [Compound 2n, 2-(tert-Butylamino)-3′,5′-dichloropropiophenone]",,,,,,,,,,,,,,,,,Locomotor Activity 1-Hour ED50 (mice [6]): NE^f
"CCCCCC(NC(C)(C)C)C(=O)c1cccc(Cl)c1 (centres unmarked) [Compound 2r, 2-(N-tert-Butylamino)-3′-chloroheptanophenone]",78,280 to 460,60 to 90,0,0,34,,0.709,1.57,66,5.82,weak stimulants in both tests,13.4,2,,17,Ki ((h)NET [8]): 4.3 µM
"CC(C)NC(C)C(=O)c1cccc(Cl)c1 (centres unmarked) [Compound 2w, 2-(N-Isopropylamino)-3′-chloropropiophenone]",65,50 to 160,20 to 50,,,,,3.98,,84,,activity similar to cocaine in the 1-h protocol but weakened significantly in the 8-h time-course study,,,,,IC50 ((h)DAT [1]; [12]): 2 µM; times less potent than bupropion as DA uptake inhibitor ((h)DAT [1]; relative to bupropion): 2 times; ED50 (mice [2]; 8 h): 7.4 mg/kg
"COC(=O)[C@H]1[C@@H](OC(=O)c2ccccc2)C[C@@H]2CC[C@H]1N2C [cocaine, reference compound]",100,40 to 100,0 to 30,,,,,,,100,8.5 to 11,,,,,,Locomotor Activity 1-Hour ED50 (mice [6]): 8.5-11^e mg/kg
